From ChEMBL document CHEMBL1208787 (Bioorg Med Chem Lett, 2010) come the findings set out here.

The structures appear in SMILES notation.

In series [1] the test system is Rattus norvegicus. The experiment in a line: Gastrointestinal toxicity in rat assessed as ulcerogenic index administered orally at dose equivalent to 210 mg/kg ibuprofen. The class given is organism-based. The note with it: in vivo, po. On the set-up: dose 210 mg/kg, route oral.
The subject of series [2] is Rattus norvegicus. The experiment in a line: Antiinflammatory activity in rat assessed as inhibition of carrageenan-induced paw edema administered orally at dose equivalent to 70 mg/kg ibuprofen after 4 hrs. The class given is functional. As to conditions: route oral. On the technique in general: The carrageenan paw model is a standard test of acute inflammation.
The test system of series [3] is Mus musculus. The experiment in a line: Analgesic activity in po dosed mouse assessed as decrease in tail flick tendency after 4 hrs by tail flick test. The class given is functional. A general note: Hot-plate and tail-flick tests time the reaction to a heat stimulus.
Series [4] has as its system Stomach (Rattus norvegicus). The experiment in a line: Gastrointestinal toxicity in rat gastric mucosa assessed as ulcerogenic activity-related malonaldehyde level per 100 mg of tissue administered orally at dose equivalent to 210 mg/kg ibuprofen (RVb = 3.26 nmol). The note with it: in vivo, po.
In series [5] the test system is Rattus norvegicus. The experiment in a line: Hepatotoxicity in po dosed rat assessed as effect on serum SGOT level (reference value: 143.71 +/- 1.1 U/mL). It counts as toxicity, organism-based. As to conditions: in vivo.
The subject of series [6] is Rattus norvegicus. The experiment in a line: Hepatotoxicity in po dosed rat assessed as effect on serum alkaline phosphatase level (reference value: 12.17 +/- 0.16 U/mL). As to conditions: in vivo. It counts as toxicity, organism-based.
Series [7] deals with Rattus norvegicus. The experiment in a line: Hepatotoxicity in po dosed rat assessed as effect on serum SGPT level (reference value: 32.46 +/- 0.76 U/mL). It counts as toxicity, organism-based. The note with it: in vivo.
Series [8] concerns Rattus norvegicus. The experiment in a line: Hepatotoxicity in po dosed rat assessed as effect on total albumin level (reference value: 1.63 +/- 0.02 g/dl). It counts as toxicity, organism-based. As to conditions: in vivo.
Series [9] has as its system Rattus norvegicus. The experiment in a line: Hepatotoxicity in po dosed rat assessed as effect on total serum protein level (reference value: 1.72+/- 0.02 g/dl). It counts as toxicity, organism-based. The note with it: in vivo.
Series [10] concerns Liver. The experiment in a line: Hepatotoxicity in po dosed rat liver assessed as effect on hepatocyte morphological changes by histopathological analysis. The class given is toxicity, organism-based. As to conditions: hepatocytes.
Series [11] relates to Rattus norvegicus. The experiment in a line: Antiinflammatory activity in rat assessed as inhibition of carrageenan-induced paw edema at 70 mg/kg, po after 4 hrs. The class given is functional.
Series [12] relates to Liver. The experiment in a line: Gastrointestinal toxicity in rat liver assessed as ulcerogenic activity-related malonaldehyde level per 100 mg of tissue at 210 mg/kg, po (RVb = 3.26 nmol). It counts as organism-based. Details: dose 210 mg/kg, route oral. The note with it: in vivo.
Series [13] has as its system Rattus norvegicus. The experiment in a line: Gastrointestinal toxicity in rat assessed as ulcerogenic index at 210 mg/kg, po. As to conditions: in vivo. It counts as organism-based. On the set-up: dose 210 mg/kg, route oral.

For `c1ccc(-c2nn3c(-c4ccncc4)nnc3s2)cc1`, the UI in [1] is recorded as 0.666. In addition, the inhibition in vivo (commonly the drop in the measured response relative to a control, in per cent) in [2] turned out to be 66.4%. In [3], the “inhibition (INH)” value is 56.06%. Moreover, in [4], the Activity amounted to 5.78 nmol.

In the case of `Clc1ccccc1-c1nn2c(-c3ccncc3)nnc2s1`, in [1], the UI is 1.417. The inhibition in vivo in series [2] was 45.4%. Besides, the “inhibition (INH)” value in series [3] is on record as 37.27%. The Activity in series [4] was found to be 8.8 nmol.

As for `Clc1ccc(-c2nn3c(-c4ccncc4)nnc3s2)c(Cl)c1`, the UI in series [1] is listed as 0.75. Besides, the inhibition in vivo in series [2] worked out at 69.3%. Also, in [3], the “inhibition (INH)” value was 61.81%. Moreover, in series [4], the Activity was found to be 6.71 nmol.

For the molecule `Cc1ccccc1-c1nn2c(-c3ccncc3)nnc2s1`, the UI in series [1] is 0.471. In addition, in [2], the inhibition in vivo came out at 79.8%. Besides, in [3], the “inhibition (INH)” value is 62.54%. In addition, the Activity in [4] came to 4.16 nmol.

Take `CC(=O)Oc1ccccc1-c1nn2c(-c3ccncc3)nnc2s1`: the UI in series [1] came to 2.25. The inhibition in vivo in series [2] is 39.8%. Also, the “inhibition (INH)” value in series [3] came to 25%. The Activity in [4] is on record as 8.82 nmol.

`c1ccc(Oc2nn3c(-c4ccncc4)nnc3s2)cc1`: the UI in series [1] turned out to be 1.5. In addition, in [2], the inhibition in vivo came out at 63.5%. For the same molecule, in series [3], the “inhibition (INH)” value is 52.27%. Further, the Activity in [4] was found to be 7.32 nmol.

Take `O=[N+]([O-])c1ccc(-c2nn3c(-c4ccncc4)nnc3s2)cc1`: the UI in series [1] came to 0.324. In addition, the Activity in series [5] is 138.32 U/ml; in series [6], 12.76 U/ml; in series [7] it was 29.34 U/ml; in series [8], 1.77 g/dL; in [9], 1.78 g/dL; in series [4], 3.47 nmol. The Activity entry in series [10] is “Non-toxic”. In addition, the inhibition in vivo in series [2] was determined as 86.3%. Besides, in series [3], the “inhibition (INH)” value was determined as 74.32%.

On to `Clc1ccccc1-c1nnc(-c2ccncc2)o1`, for which, in series [1], the UI came to 2. Moreover, the inhibition in vivo in series [2] turned out to be 37.7%. The “inhibition (INH)” value in [3] stood at 29.54%. Also, the Activity in series [4] was 8.11 nmol.

Turning to `Clc1ccc(-c2nnc(-c3ccncc3)o2)c(Cl)c1`, the UI in series [1] amounted to 0.386. The Activity in series [5] turned out to be 136.24 U/ml; in series [6] it was 13.79 U/ml; in series [7] it was 28.67 U/ml; in series [8], 1.72 g/dL; in series [9], 1.76 g/dL; in [4], 3.29 nmol. In addition, the Activity entry in series [10] is “Non-toxic”. For the same molecule, in series [2], the inhibition in vivo was 84%. In addition, the “inhibition (INH)” value in series [3] came out at 70.37%.

For `Cc1ccccc1-c1nnc(-c2ccncc2)o1`, the UI in series [1] was 2.266. Also, the inhibition in vivo in [2] came to 43.4%. Besides, the “inhibition (INH)” value in [3] is 31.81%. For the same molecule, the Activity in series [4] is on record as 7.33 nmol.

As to `CC(=O)Oc1ccccc1-c1nnc(-c2ccncc2)o1`, the UI in series [1] was 0.831. The inhibition in vivo in series [2] was 63.4%. In [3], the “inhibition (INH)” value came to 57.57%. Further, in series [4], the Activity worked out at 5.19 nmol.

Take `c1ccc(Oc2nnc(-c3ccncc3)o2)cc1`: the UI in [1] amounted to 0.731. Moreover, in series [2], the inhibition in vivo turned out to be 71.2%. Further, the “inhibition (INH)” value in series [3] turned out to be 62.14%. In series [4], the Activity is reported as 3.33 nmol.

As for `O=[N+]([O-])c1ccc(-c2nnc(-c3ccncc3)o2)cc1`, the UI in series [1] turned out to be 1.762. For the same molecule, the inhibition in vivo in series [2] worked out at 54%. Moreover, the “inhibition (INH)” value in [3] amounted to 44.05%. Further, the Activity in [4] turned out to be 6.85 nmol.

For the molecule `c1ccc(-c2nnc(-c3ccncc3)o2)cc1`, in series [1], the UI worked out at 1.667. Also, in [2], the inhibition in vivo was 82.6%. For the same molecule, in series [3], the “inhibition (INH)” value is 68.21%.

Consider `Sc1nnc(-c2ccncc2)o1`, for which the UI in [1] amounted to 1.327. Moreover, in series [2], the inhibition in vivo came out at 62.9%. Moreover, in series [3], the “inhibition (INH)” value was 54.28%. In series [4], the Activity worked out at 5.78 nmol.

Consider `CC(C)Cc1ccc(C(C)C(=O)O)cc1` (stereo not drawn) [IBUPROFEN], for which the Activity worked out at 140.14 U/ml in series [5]; 7.51 nmol in [12]; 11.67 U/ml in [6]; 34.26 U/ml in series [7]; 1.71 g/dL in series [8]; 1.74 g/dL in [9]. Moreover, in series [11], the inhibition in vivo at 70 mg/kg was 82.7%. In [3], the “inhibition (INH)” value was 73.52%. Moreover, the UI in series [13] worked out at 2.315.

As for `NNC(=O)c1ccncc1` [ISONIAZID], the UI in series [1] came to 3.75. The Activity in series [5] was found to be 151.25 U/ml; in series [6] it was 8.31 U/ml; in series [7], 40.21 U/ml; in series [8], 1.48 g/dL; in series [9], 1.55 g/dL. For the same molecule, the inhibition in vivo in series [2] was 51.6%. The “inhibition (INH)” value in [3] came out at 45.9%.
